Tests used:
TAS2R4 [1] = biological target: T1, TAS2R4 (Homo sapiens, UniProt Q9NYW5); assay: Calcium fluorescence functional assay, TAS2R4 cell line with mouse Gα15; format: cell-based; details: 20 mM tastant; change in intracellular calcium
T1 construct: expressed in transfected cells
T1 sequence (Q9NYW5 1-299): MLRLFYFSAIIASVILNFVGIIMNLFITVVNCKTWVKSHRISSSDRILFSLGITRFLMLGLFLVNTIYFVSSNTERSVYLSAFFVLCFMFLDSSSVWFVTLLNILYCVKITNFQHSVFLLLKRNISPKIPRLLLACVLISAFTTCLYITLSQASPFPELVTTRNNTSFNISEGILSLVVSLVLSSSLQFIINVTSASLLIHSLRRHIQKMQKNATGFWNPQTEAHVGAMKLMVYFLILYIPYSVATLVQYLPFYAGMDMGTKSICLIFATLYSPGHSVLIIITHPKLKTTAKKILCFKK
Description: (§1) A panel of cell lines expressing eight specific bitter taste receptors, a subset of the panel of twenty-five bitter receptors described in International Patent Application Publication WO 2010/088633 (see, e.g., Example 26), was used for the purpose of these analyses. Accordingly, each cell line of the panel expressed a human bitter taste receptor and mouse Gα15 signaling protein.
(§2) Each of the Examples below utilized the following functional assay: • Day 1: Stable cell lines were seeded onto black wall/clear bottom 96-well, plates (e.g., Corning, 3904). Approximately 40K cells were added per well and incubated at 37° C., 5% CO2 overnight in cell growth media (DMEM (Sigma, D5796) supplemented with 10% Fetal Bovine Serum (Sigma, 5178), 2 mM Glutamine (Sigma, G7513)). • Day 2: Growth media was discarded and cells were incubated at 37° C., 5% CO2 for 60 minutes in 100 ul of load solution containing 1× Ca-3 dye (Molecular Devices, R8090), 1% DMSO in buffer containing 130 mM NaCl, 2 mM CaCl2, 5 mM KCl, 1.2 mM MgCl2, 10 mM HEPES and 10 mM Glucose (pH 7.0). Probenecid was not included in the load solution. • Functional assay: After dye loading, cell plates were placed in a fluorescent plate reader (e.g., FDSS6000 (Hamamatsu, Japan)) and receptor stimulation was measured by adding 50 ul of 3× concentrated ligand/agonist stock. Fluorescence was monitored continuously for 10 s before agonist addition and for 100-250 s after stimulation with agonist.
(§3) Receptor Activation is defined as follows: • % Activation=[((Maximum signal fluorescence−Minimum signal fluorescence)−(Maximum control fluorescence−Minimum control fluorescence))/(Maximum buffer fluorescence−Minimum buffer fluorescence)]*100 • Functional Response=[(Maximum signal fluorescence−Minimum signal fluorescence)−(Maximum control fluorescence−Minimum control fluorescence)] • Signal fluorescence: refers to the change in fluorescence seen with addition of ligand • Control fluorescence: refers to the change in fluorescence seen with addition of buffer (negative control) • Calcium signals from ligand and control were normalized to the basal fluorescence of the cells prior to the stimulation.
(§4) A concentration analysis was performed and EC50 values were calculated by nonlinear regression using the formula: Y=Bottom+(Top−Bottom)/(1+10^((Log EC50−X)*Hill Slope)), X=log of dose or concentration, Y=Response (increasing as X increases), Top=maximum signal, Bottom=minimum signal. EC50 (half maximal effective concentration) refers to the molar concentration of the agonist which produces 50% of the maximum possible effective response from that agonist.

TAS2R9 [2] = biological target: T2, TAS2R9 (Homo sapiens, UniProt Q9NYW1); assay: Calcium fluorescence functional assay, TAS2R9 cell line with mouse Gα15; format: cell-based; details: 20 mM tastant; change in intracellular calcium
T2 construct: expressed in transfected cells
T2 sequence (Q9NYW1 1-312): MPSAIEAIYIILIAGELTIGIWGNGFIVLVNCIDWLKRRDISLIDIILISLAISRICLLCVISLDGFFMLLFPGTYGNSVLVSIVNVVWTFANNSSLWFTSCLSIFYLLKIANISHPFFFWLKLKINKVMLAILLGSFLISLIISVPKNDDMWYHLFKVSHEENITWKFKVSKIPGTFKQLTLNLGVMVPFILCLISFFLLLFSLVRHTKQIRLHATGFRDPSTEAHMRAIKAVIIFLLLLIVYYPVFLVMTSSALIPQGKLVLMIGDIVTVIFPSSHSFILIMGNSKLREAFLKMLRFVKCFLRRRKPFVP
Description: as §1, §2, §3, §4

TAS2R13 [3] = biological target: T3, TAS2R13 (Homo sapiens, UniProt Q9NYV9); assay: Calcium fluorescence functional assay, TAS2R13 cell line with mouse Gα15; format: cell-based; details: 20 mM tastant; change in intracellular calcium
T3 construct: expressed in transfected cells
T3 sequence (Q9NYV9 1-303): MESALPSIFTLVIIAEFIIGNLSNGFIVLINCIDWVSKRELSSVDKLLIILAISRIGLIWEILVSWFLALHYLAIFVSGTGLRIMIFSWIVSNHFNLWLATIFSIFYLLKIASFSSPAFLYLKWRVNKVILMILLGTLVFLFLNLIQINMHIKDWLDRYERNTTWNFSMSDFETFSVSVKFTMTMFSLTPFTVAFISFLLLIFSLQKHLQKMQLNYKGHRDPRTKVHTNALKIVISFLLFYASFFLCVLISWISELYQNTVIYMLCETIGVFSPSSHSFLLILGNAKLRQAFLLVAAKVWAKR
Description: as §1, §2, §3, §4

TAS2R14 [4] = biological target: T4, TAS2R14 (Homo sapiens, UniProt Q9NYV8); assay: Calcium fluorescence functional assay, TAS2R14 cell line with mouse Gα15; format: cell-based; details: 20 mM tastant; change in intracellular calcium
T4 construct: expressed in transfected cells
T4 sequence (Q9NYV8 1-317): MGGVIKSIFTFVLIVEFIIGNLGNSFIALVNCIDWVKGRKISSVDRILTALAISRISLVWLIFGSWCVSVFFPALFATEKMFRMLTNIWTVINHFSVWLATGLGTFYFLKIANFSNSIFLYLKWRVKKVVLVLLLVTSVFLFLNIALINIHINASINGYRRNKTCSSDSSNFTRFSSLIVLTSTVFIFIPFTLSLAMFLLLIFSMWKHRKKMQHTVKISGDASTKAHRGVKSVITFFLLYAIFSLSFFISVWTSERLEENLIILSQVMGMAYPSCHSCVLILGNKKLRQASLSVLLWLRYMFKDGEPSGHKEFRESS
Description: as §1, §2, §3, §4

TAS2R44 [5] = biological target: T5, TAS2R44 (Homo sapiens, UniProt P59538); assay: Calcium fluorescence functional assay, TAS2R44 cell line with mouse Gα15; format: cell-based; details: 20 mM tastant; change in intracellular calcium
T5 construct: expressed in transfected cells
T5 sequence (P59538 1-309): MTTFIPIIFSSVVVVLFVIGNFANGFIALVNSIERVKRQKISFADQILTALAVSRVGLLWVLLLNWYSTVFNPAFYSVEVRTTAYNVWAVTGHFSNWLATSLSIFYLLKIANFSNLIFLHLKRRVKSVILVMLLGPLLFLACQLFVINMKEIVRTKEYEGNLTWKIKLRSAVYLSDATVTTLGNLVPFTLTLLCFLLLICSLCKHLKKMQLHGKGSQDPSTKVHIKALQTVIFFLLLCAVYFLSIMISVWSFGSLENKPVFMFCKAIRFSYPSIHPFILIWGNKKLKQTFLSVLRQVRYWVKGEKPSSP
Description: as §1, §2, §3, §4

TAS2R38 (PAV) = biological target: T6, TAS2R38 (PAV) (Homo sapiens, UniProt P59533, A49P/I296V); assay: Calcium fluorescence functional assay, TAS2R38 (PAV) cell line with mouse Gα15; format: cell-based
T6 construct: expressed in transfected cells
T6 sequence (P59533 1-333 A49P/I296V): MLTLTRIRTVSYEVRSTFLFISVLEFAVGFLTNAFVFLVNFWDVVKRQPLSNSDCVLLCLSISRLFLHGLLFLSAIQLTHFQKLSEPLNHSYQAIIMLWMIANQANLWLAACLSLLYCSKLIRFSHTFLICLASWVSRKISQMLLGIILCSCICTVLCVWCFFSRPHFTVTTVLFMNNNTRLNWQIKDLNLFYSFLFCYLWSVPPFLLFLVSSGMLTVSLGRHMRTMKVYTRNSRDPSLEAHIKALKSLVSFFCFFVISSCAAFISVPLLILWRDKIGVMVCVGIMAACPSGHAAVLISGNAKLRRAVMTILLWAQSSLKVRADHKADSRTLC
Description: as §1, §2, §3, §4

TAS2R39 = biological target: T7, TAS2R39 (Homo sapiens, UniProt P59534); assay: Calcium fluorescence functional assay, TAS2R39 cell line with mouse Gα15; format: cell-based
T7 construct: expressed in transfected cells
T7 sequence (P59534 1-338): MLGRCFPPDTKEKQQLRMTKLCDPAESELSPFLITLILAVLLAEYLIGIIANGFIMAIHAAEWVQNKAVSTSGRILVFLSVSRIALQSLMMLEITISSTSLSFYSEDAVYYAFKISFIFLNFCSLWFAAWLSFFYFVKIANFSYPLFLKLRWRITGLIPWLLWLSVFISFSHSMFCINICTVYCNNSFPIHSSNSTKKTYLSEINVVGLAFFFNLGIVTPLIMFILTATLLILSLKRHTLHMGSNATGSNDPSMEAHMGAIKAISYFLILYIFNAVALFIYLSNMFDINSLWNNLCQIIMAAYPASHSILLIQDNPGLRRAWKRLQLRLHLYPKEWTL
Description: as §1, §2, §3, §4

TAS2R4 [6] = biological target: T1, TAS2R4; details: PCT/US12/61400; cited from earlier work
TAS2R9 [7] = biological target: T2, TAS2R9; details: PCT/US12/61400; cited from earlier work
TAS2R13 [8] = biological target: T3, TAS2R13; details: PCT/US12/61400; cited from earlier work
TAS2R14 [9] = biological target: T4, TAS2R14; details: PCT/US12/61400; cited from earlier work
TAS2R44 [10] = biological target: T5, TAS2R44; details: PCT/US12/61400; cited from earlier work
TAS2R1 = TAS2R1 (Homo sapiens, UniProt Q9NYW7); details: PCT/US12/61400; cited from earlier work
TAS2R1, sequence (Q9NYW7 whole entry): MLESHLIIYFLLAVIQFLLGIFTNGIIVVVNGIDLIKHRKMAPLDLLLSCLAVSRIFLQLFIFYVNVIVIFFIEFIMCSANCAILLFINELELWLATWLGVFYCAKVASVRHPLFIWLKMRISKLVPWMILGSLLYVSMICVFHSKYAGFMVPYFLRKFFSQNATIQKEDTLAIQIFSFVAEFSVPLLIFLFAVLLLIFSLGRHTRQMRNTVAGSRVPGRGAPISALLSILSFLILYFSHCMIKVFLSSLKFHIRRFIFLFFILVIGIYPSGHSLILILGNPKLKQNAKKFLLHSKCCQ

TAS2R16 = TAS2R16 (Homo sapiens, UniProt Q9NYV7); details: PCT/US12/61400; cited from earlier work
TAS2R16, sequence (Q9NYV7 whole entry): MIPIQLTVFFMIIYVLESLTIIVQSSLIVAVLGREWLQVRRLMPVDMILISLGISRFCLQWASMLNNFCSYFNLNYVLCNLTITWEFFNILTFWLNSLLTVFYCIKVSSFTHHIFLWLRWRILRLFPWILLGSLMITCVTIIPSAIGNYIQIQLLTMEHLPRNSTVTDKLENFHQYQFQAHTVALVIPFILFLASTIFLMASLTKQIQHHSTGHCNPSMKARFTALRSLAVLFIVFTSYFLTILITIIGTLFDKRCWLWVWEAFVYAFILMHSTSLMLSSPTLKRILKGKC

[11] = 20 mM tastant, change in intracellular calcium
[12] = approximately, increasing concentrations of tastant

| Structure (SMILES) | TAS2R4 bitter receptor activity (functional response) (TAS2R4 [1]) | TAS2R9 bitter receptor activity (functional response) (TAS2R9 [2]) | TAS2R13 bitter receptor activity (functional response) (TAS2R13 [3]) | TAS2R14 bitter receptor activity (functional response) (TAS2R14 [4]) | TAS2R44 bitter receptor activity (functional response) (TAS2R44 [5]) | TAS2R38 (PAV) bitter receptor activity (functional response) (TAS2R38 (PAV); [11]) | EC50 (TAS2R38 (PAV); [12]) [mM] | TAS2R39 bitter receptor activity (functional response) (TAS2R39; [11]) | EC50 (TAS2R39; [12]) [mM] | TAS2R4 response to stimulation, previously shown (TAS2R4 [6]) | TAS2R9 response to stimulation, previously shown (TAS2R9 [7]) | TAS2R13 response to stimulation, previously shown (TAS2R13 [8]) | TAS2R14 response to stimulation, previously shown (TAS2R14 [9]) | TAS2R44 response to stimulation, previously shown (TAS2R44 [10]) | TAS2R1 response to stimulation, previously shown (TAS2R1) | TAS2R16 response to stimulation, previously shown (TAS2R16) |
| --- | --- | --- | --- | --- | --- | --- | --- | --- | --- | --- | --- | --- | --- | --- | --- | --- |
| CC(O)C(=O)[O-].[K+] (stereo not shown) [potassium lactate] | activate | activate | activate | activate | activate |  |  |  |  |  |  |  |  |  |  |  |
| CC1=CC(=O)NS(=O)(=O)O1 [Acesulfame K] |  |  |  |  |  | strongly and specifically responded | 5 to 10 | strongly and specifically responded | 5 to 10 | specifically respond | specifically respond | specifically respond | specifically respond | specifically respond | specifically respond | specifically respond |

— patent publication US9927424B2, “Assays for identifying compounds that modulate bitter taste” (Chromocell Corporation, priority 2013, dated 2018)
